Literature values in patent US20240050339A1, “FORMULATION COMPRISING P-MENTHANE-3,8-DIOL” (priority 2020, published 2024).

Key:
[1] = tested on: SARS-CoV-2 England-2 isolate; settings: one minute, mixed with the virus in the liquid phase
Urbani SARS virus = settings: PMD alone, from U.S. Pat. No. 7,872,051

| SMILES | anti-viral activity in liquid suspension [1] | maximum log reduction (Urbani SARS virus) [log] |
| --- | --- | --- |
| CCO [ethanol] | have anti-viral activity |  |
| CC(C)O [isopropanol, propan-2-ol] | have anti-viral activity |  |
| CC1CCC(C(C)(C)O)C(O)C1 (stereo not drawn) [PMD, 2-(2-Hydroxypropan-2-yl)-5-methylcyclohexan-1-ol] |  | 2.5 |
